Data taken from patent US4127687A, “Prevention of fouling of marine structures such as boat hulls” (Rohm and Haas Company, priority 1976, dated 1978).
In brackets after ≈: the same amount, converted by molar mass. Like-named read-outs stand apart in the source and are kept apart here.

What was measured:
Hydroids = experiment: Membrane test, hydroids (Table 1 footnote d); type: in vivo; design: key: Effective against Hydroids
Text: 1). FIELD TESTS: - Membrane Diffusion Raft Trials
A known quantity of the test compound is placed into a cylindrical plastic container whose open end is then covered with a membrane of known porosity; the complete unit is attached to the appropriate raft panel so that the poison can freely diffuse into the free water layer around it. Regular inspections, recording time and quantity of settlement, allow a life history of each membrane trial to be constructed. Each raft panel contains 35 compounds to be evaluated together with 4 standard poisons and 1 non-toxic membrane for control.
The behavior on the raft can thus be compared with that of the standard poisons and the non-toxic control. At normal loading a membrane over the standard poisons would be free from macro-fouling after six months immersion. Compounds showing selective effects against restricted groups of fouling organisms also show up by membrane testing.
^d Effective against Hydroids.

[1] = Water solubility by UV spectrophotometric method; type: physicochemical; details: water
Outline: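 Molar absorptivity determined from UV absorbance of a known-concentration aqueous solution at λmax (10 cm cell). Saturated solution prepared by stirring excess compound in deionized water ~72 hrs, filtered, diluted to mid-scale absorbance; solubility calculated from absorbance using that absorptivity.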

weed [2] = experiment: Membrane Diffusion Raft Trials, weed control; type: in vivo, grass-like algal growth common in sea water; design: key: 0 = none, + = some, ++ = effective; details: membrane test, average 15 to 16 weeks of immersion
Outline: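 Field raft test in sea water: known quantity of compound in container sealed with membrane of known porosity, diffusing into surrounding water; panels at waterline (illuminated, aerated) and flats (poorly lit, deeper). Fouling settlement inspected over about 15-16 weeks average immersion; scored 0 none, + some, ++ effective.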

barnacle = experiment: Membrane Diffusion Raft Trials, barnacle control; type: in vivo, barnacles; design: key: 0 = none, + = some, ++ = effective barnacle control; details: membrane test, average 15 to 16 weeks of immersion
Outline: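 Test compound held in a plastic container sealed by a porous membrane, diffusing into surrounding seawater on raft panels alongside standard poisons and a non-toxic control membrane. Settlement timed and quantified by regular inspection; scored 0 (none), + (some) or ++ (effective), averaging 15 to 16 weeks' immersion.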

[3] = Amount of toxicant remaining in the test container after membrane diffusion raft tests; type: physicochemical; design: key: 0: empty or trace; +: some; + +: ample; details: after completion of membrane diffusion raft tests
Outline: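 Known amount of compound held in a cylindrical container sealed with a membrane of known porosity, fixed to a raft panel so toxicant diffuses into the surrounding water. Each panel carries 35 test compounds, 4 standard poisons and 1 non-toxic membrane control. After the trial, container contents inspected visually for remaining toxicant (0 = empty or trace).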

[4] = tested on: sea water marine organisms; experiment: Effectiveness as sea water marine anti-foulant; type: in vivo; details: result in words
Text: The results in anti-fouling paints when utilizing the 3-isothiazolones of the patents noted above, are not predictable from their effectiveness as general biocides, whether against fresh water algae, bacteria, fungi, insects, etc.
Of the compounds appearing hereinafter in the examples, a number are common to Table 1 appearing in columns 9-12 of the U.S. Pat. No. 3,573,488 patent. Among the compounds common to the latter patent and the present specification are the compounds identified in the patent as example numbers 3, 5-8, 13, 23, 24, 33, 36, 37, the n-octyl isomer of examples 38, 40, 75, 76, 79, 84, and 93-96.
In example B of the U.S. Pat. No. 3,573,448 patent (appearing in columns 22-24) involving the control of algae, bacteria, fungi, and slime in fresh water cooling towers, not one of the compounds, or in some cases its homologue or analog, was effective as a salt water marine anti-foulant. […]
In the following examples, two systems of testing the compounds and evaluating the same are utilized. One involves the utilization of a confined amount of the materials to be evaluated in a cylindrical container having an open end covered by a membrane permeable to a limited extent by the sea water and by the compound in the container. The other method involves making up an anti-fouling paint and testing the same. In a four month period, meaningful results are obtained, and for a full scale test, a six month period, bracketing the summer months, is preferred. The evaluations involving (1) field tests, (2) laboratory tests, and (3) paint panel tests, are as follows: […]

weed [5] = experiment: Paint panel / plaque tests against weed (Table 2); type: in vivo, grass-like algal growth common in sea water; design: key: high performance; medium performance; low performance; poor or unacceptable performance; details: April to November, 1975
Text: (3) PAINT FORMULATION AND TEST PANEL OR PLAQUE TESTS
In order to evaluate the compound under practical conditions, weighed quantities of promising compounds are ground in standard volumes of a selected range of paint media and brushed out on plaques for marine immersion.
The anti-fouling paint formulations used is exemplified by the following: […]
The most preferred specific compounds were utilized in paints including vinyl chloride-vinyl acetate copolymers, chlorinated rubber, acrylic emulsions, and conventional paints with or without rosin to contain 20% by weight of biocide in the wet film and in some cases (Example 144 and Example 145) with concentrations of 5, 10, and 15% based on the wet film. Each of the compounds is also described in the membrane tests noted above. The paints were applied at normal thicknesses to plaques or panels of 10 centimeters by 10 centimeters which were immersed in various positions as described for the raft noted above. The compounds and results, as against weed, in the season April to November, 1975, are as follows: […]

Enteromorpha spores = experiment: Laboratory toxicity test (Lab Bioassay) with Enteromorpha spores; type: in vivo; details: using Enteromorpha spores
Outline: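 Enteromorpha spores (zoospores or gametes) exposed to test compounds in laboratory toxicity tests. LD50 values expressed as percentage saturated solution.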

[6] = saturated solution, Table 1, read-out: Solubility by UV method

| Compound | Effective against Hydroids (footnote mark d) (Hydroids) | solubility [1, 6] | Weed Control (weed [2]) | Barnacle Control (barnacle) | Contents at the end of test (amount of toxicants remaining in the test container) [3] | effectiveness as anti-foulant in sea water marine environments [4] | Effectiveness in paint CONV (conventional anti-fouling formulation) (weed [5]) | Effectiveness in paint CR (chlorinated rubber) (weed [5]) | Effectiveness in paint EM (acrylic emulsion) (weed [5]) | Effectiveness in paint V (polyvinyl chloride-acetate) (weed [5]) | Effectiveness in paint V/R (vinyl/rosin) (weed [5]) | effectiveness as anti-foulant in sea water marine environments ([4]; listed as octyl homologue of 2-n-butyl-3-isothiazolone) | effectiveness as anti-foulant in sea water marine environments ([4]; listed as octyl homologue of 2-n-decyl-3-isothiazolone) | solubility [1] | Lab Bioassay LD50 (Enteromorpha spores) |
| --- | --- | --- | --- | --- | --- | --- | --- | --- | --- | --- | --- | --- | --- | --- | --- |
| CCCCCCCCn1sc(Cl)cc1=O [Example 16] | d | 66 µg/mL (≈ 266 µM) | + + | + + | 0 |  |  |  |  |  |  |  |  |  |  |
| CCCCCCCCCCn1sc(Cl)cc1=O [Example 22] | d | 7.2 µg/mL (≈ 26.1 µM) | + + | + + | 0 |  |  |  |  |  |  |  |  |  |  |
| CCCCCCCCn1sc(Cl)c(Br)c1=O [Example 88] | d | 2.6 µg/mL (≈ 7.96 µM) | + + | + + | + |  |  |  |  |  |  |  |  |  |  |
| O=c1c(Cl)c(Cl)sn1-c1ccc(Cl)cc1 [Example 145, 4,5-dichloro-2(4'-chlorophenyl)-3-isothiazolone] |  |  |  |  |  | effective in anti-fouling environments | h | h | h | h | h |  |  |  |  |
| CCCCCCCCn1sccc1=O [Example 3, 2-n-octyl-3-isothiazolone] |  |  | 0 | 0 | 0 | not active for controlling sea water marine organisms |  |  |  |  |  | ineffective as anti-foulants | not active for controlling sea water marine organisms | 481 µg/mL (≈ 2250 µM) |  |
| CCCCn1sc(Cl)c(Cl)c1=O [Example 55] |  | 1000 µg/mL (≈ 4420 µM) | + + | + | + | control or inhibit the growth of one or more sea water marine organisms |  |  |  |  |  |  |  |  |  |
| CCCCCCCCn1sc(Cl)c(Cl)c1=O [Example 57] | d | 2.3 µg/mL (≈ 8.15 µM) | + + | + + | + + |  | m | h | h | h | h |  |  |  | 0.001 percentage saturated solution |
| CCCCCCn1sc(Cl)c(Cl)c1=O [Example 56] |  | 115 µg/mL (≈ 452 µM) | + + | + + | 0 | control or inhibit the growth of one or more sea water marine organisms |  |  |  |  |  |  |  |  |  |
